In patent publication US12247045B2, “MAP4K4 inhibitors” (Imperial College Innovations Limited, priority 2018, dated 2025):
pIC50: −log10 of the molar value. Like-named read-outs stand apart in the source and are kept apart here.

Columns and labels:
Format in all cases: biochemical
[1] = target: MINK1/MAP4K6 (Homo sapiens, UniProt Q8N4C8); test: Kinase selectivity panel, MINK1/MAP4K6; conditions: read-out: pIC50 MINK1/MAP4K6 (converted)
Description: (§1) The data in Table 42 also provides the fold selectivity of the two compounds in favour of MAP4K4 over the tested kinase. The fold selectivity is indicated in parenthesis.

[2] = target: TNIK/MAP4K7 (Homo sapiens, UniProt Q9UKE5); test: Kinase selectivity panel, TNIK/MAP4K7; conditions: read-out: pIC50 TNIK/MAP4K7 (converted)
Description: as §1

[3] = target: ABL1 (Homo sapiens, UniProt P00519); test: Kinase selectivity panel, ABL1
Description: as §1

[4] = target: T1, GCK/MAP4K2 (Homo sapiens, UniProt Q12851); test: Kinase selectivity panel, GCK/MAP4K2
T1 sequence (Q12851 1-820): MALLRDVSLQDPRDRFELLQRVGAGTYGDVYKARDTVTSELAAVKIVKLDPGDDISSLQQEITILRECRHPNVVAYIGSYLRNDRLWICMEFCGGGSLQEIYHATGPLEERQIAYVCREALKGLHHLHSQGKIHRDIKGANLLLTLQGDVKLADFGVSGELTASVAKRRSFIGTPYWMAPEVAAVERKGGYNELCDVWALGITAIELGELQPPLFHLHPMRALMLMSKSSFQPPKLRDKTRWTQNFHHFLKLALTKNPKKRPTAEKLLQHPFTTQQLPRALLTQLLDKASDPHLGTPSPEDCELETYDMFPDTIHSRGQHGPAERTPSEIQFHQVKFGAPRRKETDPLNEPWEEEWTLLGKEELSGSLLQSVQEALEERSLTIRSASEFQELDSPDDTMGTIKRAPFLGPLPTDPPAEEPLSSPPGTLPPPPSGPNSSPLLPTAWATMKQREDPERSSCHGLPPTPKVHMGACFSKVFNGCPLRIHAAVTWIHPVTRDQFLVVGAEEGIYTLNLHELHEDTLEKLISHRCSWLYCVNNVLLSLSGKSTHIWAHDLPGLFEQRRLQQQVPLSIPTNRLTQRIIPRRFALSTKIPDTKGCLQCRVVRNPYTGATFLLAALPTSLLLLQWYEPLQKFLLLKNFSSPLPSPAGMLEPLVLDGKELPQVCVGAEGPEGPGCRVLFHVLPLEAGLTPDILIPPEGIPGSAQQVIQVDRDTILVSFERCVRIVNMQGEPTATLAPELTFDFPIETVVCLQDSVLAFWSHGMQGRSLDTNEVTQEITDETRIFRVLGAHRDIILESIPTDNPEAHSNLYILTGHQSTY
Description: as §1

[5] = target: T2, NUAK1 (Homo sapiens, UniProt O60285); test: Kinase selectivity panel, NUAK1
T2 sequence (O60285 1-661): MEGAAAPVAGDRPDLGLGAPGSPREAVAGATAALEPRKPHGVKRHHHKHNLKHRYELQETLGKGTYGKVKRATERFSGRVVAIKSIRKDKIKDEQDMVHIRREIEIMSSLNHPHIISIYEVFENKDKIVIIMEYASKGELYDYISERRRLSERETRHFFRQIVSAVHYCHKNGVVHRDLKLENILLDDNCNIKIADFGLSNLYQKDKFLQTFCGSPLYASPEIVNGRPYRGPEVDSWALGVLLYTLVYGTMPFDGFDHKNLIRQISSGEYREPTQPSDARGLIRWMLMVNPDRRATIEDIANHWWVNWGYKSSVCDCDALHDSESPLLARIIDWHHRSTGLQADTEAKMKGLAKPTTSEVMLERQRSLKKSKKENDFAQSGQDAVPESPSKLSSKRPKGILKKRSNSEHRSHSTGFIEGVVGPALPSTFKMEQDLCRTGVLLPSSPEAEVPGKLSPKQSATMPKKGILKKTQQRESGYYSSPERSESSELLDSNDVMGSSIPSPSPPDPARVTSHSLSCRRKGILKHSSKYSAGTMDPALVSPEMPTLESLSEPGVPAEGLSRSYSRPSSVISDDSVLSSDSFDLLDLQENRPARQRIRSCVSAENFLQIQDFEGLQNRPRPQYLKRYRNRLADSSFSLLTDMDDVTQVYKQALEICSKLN
Description: as §1

[6] = target: MLK3/MAP3K11 (Homo sapiens, UniProt Q16584); test: Kinase selectivity panel, MLK3/MAP3K11
Description: as §1

[7] = target: T3, human MAP4K4 kinase domain (Homo sapiens, UniProt O95819); test: MAP4K4 kinase activity, CisBio HTRF Transcreener ADP assay
T3 construct: 0.5 nM human MAP4K4 kinase domain (Invitrogen); purchased Invitrogen
Outline: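 HTRF Transcreener ADP read-out (665/620 nm ratio) of ADP formed by 0.5 nM kinase domain with 1 μM biotin-myelin basic protein substrate and ATP at Km (10 μM), 1% DMSO, 2 h reaction. IC50 values binned as A ≤100 nM, B 100 nM–1 μM, C >1 μM.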

[8] = target: KHS/MAP4K5 (Homo sapiens, UniProt Q9Y4K4); test: Kinase selectivity panel, KHS/MAP4K5
Description: as §1

T3 sequence (O95819 25-289 limits assumed): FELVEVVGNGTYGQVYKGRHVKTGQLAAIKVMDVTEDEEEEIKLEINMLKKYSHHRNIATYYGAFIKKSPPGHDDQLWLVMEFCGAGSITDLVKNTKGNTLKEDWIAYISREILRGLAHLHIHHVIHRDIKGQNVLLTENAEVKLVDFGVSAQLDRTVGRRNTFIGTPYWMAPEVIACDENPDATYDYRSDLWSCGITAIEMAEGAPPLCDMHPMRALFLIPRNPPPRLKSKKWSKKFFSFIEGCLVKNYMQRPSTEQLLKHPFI
Chain of MLK3/MAP3K11 (Q16584 whole entry): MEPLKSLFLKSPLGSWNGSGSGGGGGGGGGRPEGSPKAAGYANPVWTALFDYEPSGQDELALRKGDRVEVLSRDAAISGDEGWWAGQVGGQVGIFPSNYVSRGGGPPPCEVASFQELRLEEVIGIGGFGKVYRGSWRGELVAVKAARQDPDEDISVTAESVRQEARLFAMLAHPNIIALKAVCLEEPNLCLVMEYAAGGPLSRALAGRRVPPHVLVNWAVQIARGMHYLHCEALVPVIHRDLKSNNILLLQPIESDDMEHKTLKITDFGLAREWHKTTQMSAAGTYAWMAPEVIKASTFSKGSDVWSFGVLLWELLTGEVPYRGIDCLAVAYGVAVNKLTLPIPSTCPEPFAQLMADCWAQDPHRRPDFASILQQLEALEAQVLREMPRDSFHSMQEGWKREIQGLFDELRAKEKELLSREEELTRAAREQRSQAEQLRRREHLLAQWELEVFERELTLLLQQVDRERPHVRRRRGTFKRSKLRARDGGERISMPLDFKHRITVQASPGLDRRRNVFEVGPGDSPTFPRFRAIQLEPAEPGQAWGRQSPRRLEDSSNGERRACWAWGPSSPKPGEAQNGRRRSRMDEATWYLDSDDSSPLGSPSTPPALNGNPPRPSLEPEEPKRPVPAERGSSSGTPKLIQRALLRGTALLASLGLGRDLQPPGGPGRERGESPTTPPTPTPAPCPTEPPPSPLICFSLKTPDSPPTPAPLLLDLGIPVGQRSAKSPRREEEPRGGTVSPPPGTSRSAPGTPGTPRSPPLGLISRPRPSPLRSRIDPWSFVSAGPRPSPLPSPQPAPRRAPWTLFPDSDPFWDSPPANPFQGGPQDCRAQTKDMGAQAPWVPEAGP
Chain of ABL1 (P00519 whole entry, species assumed): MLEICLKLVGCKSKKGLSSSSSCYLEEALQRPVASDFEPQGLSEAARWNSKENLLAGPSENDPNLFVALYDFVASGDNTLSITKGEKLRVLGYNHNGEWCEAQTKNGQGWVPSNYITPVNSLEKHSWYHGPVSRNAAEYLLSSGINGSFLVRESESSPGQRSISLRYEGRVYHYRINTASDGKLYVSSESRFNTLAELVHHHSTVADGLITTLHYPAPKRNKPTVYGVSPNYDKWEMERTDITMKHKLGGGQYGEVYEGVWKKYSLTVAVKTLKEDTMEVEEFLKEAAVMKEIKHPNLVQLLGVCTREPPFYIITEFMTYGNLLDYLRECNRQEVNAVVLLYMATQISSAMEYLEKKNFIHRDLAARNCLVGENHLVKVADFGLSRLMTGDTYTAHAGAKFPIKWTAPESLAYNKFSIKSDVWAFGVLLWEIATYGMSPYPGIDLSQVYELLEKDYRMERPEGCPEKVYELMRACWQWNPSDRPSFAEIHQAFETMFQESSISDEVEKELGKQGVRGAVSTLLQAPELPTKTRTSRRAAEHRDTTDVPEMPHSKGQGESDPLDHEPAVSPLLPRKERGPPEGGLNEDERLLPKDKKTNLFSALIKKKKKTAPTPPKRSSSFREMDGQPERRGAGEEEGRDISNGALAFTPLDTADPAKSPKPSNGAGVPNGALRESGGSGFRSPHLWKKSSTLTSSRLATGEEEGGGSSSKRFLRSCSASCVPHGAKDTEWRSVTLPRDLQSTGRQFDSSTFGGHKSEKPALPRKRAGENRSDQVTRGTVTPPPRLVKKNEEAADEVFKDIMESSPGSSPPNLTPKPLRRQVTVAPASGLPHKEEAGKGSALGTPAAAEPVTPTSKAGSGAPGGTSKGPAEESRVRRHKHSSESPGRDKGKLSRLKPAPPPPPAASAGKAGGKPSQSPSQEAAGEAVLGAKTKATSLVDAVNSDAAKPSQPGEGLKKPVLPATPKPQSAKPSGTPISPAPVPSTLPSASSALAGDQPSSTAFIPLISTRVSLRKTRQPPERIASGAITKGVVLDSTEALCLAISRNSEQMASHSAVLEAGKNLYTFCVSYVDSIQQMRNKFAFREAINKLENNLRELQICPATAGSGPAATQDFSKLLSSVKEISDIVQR
Chain of KHS/MAP4K5 (Q9Y4K4 whole entry): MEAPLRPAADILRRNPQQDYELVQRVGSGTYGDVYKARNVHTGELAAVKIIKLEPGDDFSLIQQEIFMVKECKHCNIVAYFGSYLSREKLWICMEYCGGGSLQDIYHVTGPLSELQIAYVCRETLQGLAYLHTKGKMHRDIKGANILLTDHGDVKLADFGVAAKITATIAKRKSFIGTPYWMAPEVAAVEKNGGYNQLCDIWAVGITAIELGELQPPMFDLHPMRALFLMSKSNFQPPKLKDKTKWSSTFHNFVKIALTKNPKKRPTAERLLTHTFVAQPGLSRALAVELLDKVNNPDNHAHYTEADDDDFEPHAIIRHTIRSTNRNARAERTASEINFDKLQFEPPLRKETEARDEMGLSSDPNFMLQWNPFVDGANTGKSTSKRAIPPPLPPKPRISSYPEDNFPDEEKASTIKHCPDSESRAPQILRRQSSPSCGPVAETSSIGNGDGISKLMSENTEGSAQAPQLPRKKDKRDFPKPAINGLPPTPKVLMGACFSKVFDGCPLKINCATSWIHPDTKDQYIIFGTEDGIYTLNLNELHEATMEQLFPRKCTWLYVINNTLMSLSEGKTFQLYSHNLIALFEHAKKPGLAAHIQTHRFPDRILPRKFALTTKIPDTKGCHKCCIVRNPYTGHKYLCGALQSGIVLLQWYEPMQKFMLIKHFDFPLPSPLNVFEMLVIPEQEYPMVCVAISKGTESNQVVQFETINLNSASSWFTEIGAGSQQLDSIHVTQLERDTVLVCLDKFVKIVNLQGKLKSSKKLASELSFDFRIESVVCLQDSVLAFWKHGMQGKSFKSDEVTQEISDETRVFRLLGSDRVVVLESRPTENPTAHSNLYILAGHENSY
Chain of TNIK/MAP4K7 (Q9UKE5 whole entry): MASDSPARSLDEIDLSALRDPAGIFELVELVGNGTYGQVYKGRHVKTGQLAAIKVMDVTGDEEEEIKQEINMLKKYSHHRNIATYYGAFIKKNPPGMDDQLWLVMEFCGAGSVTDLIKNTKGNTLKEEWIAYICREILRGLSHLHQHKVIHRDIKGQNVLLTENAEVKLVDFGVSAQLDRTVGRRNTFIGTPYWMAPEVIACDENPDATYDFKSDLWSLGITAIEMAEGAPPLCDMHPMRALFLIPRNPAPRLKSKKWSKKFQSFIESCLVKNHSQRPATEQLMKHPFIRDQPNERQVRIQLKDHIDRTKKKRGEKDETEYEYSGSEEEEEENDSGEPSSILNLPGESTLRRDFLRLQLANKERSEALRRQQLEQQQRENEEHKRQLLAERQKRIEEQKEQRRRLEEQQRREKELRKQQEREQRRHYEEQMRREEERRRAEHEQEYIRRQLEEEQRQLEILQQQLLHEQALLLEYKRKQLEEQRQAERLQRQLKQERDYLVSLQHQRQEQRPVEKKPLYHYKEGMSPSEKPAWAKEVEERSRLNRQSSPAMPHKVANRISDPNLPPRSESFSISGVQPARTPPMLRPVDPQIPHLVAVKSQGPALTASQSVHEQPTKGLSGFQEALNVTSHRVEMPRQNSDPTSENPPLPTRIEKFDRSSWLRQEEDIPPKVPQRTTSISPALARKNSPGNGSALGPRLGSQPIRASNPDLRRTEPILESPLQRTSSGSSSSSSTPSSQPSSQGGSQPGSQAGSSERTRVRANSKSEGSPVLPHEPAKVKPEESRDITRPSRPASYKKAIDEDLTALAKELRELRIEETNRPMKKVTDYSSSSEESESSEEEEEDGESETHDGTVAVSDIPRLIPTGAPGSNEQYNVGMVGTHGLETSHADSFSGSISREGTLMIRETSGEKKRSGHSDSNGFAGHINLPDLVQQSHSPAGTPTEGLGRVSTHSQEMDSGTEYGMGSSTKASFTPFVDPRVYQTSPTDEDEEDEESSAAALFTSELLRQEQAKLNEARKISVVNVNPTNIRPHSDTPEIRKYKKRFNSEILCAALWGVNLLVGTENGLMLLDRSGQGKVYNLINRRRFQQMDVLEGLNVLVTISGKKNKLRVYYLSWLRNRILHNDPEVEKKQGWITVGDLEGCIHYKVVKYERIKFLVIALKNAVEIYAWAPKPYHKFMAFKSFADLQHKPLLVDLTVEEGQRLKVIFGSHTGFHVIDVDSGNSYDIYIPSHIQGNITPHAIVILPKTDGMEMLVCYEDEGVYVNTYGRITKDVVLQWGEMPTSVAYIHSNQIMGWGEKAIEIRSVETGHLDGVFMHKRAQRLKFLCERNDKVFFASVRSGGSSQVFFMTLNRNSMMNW

Q: How did the IC50 [1] turn out when `CC(C)(O)CCOc1ccc(-c2cn(-c3cccnc3)c3nc[nH]c(=O)c23)cc1` [Ex-78, 5-(4-(3-hydroxy-3-methylbutoxy)phenyl)-7-(pyridin-3-yl)-3,7-dihydro-4H-pyrrolo[2,3-d]pyrimidin-4-one] was run?
A: 63.1 nM

Q: What about the IC50 [2] of the same compound?
A: 126 nM

Q: And the “fold selectivity MAP4K4 over ABL1” value ([3]; in favour of MAP4K4)?
A: (251) fold

Q: What about the IC50 ([3]; read-out: pIC50 ABL1 (converted)) of the same compound?
A: 7.94 µM

Q: And the “fold selectivity MAP4K4 over GCK/MAP4K2” value ([4]; in favour of MAP4K4)?
A: (32) fold

Q: And the IC50 ([4]; read-out: pIC50 GCK/MAP4K2 (converted))?
A: 1000 nM

Q: And the “fold selectivity MAP4K4 over NUAK1” value ([5]; in favour of MAP4K4)?
A: (16) fold

Q: What about the IC50 ([5]; read-out: pIC50 NUAK1 (converted)) of the same compound?
A: 501 nM

Q: What about the “fold selectivity MAP4K4 over MLK3/MAP3K11” value ([6]; in favour of MAP4K4) of the same compound?
A: (8) fold

Q: And the IC50 ([6]; read-out: pIC50 MLK3/MAP3K11 (converted))?
A: 251 nM

Q: What about the pIC50 ([7]; IC50 category, ATP at Km (10 μM), 0.5 nM kinase domain, 2 h, read-out: MAP4K4) of the same compound?
A: ≥ 7.00

Q: And the IC50 ([7]; read-out: pIC50 MAP4K4 (converted))?
A: 31.6 nM

Q: What about the “fold selectivity MAP4K4 over KHS/MAP4K5” value ([8]; in favour of MAP4K4) of the same compound?
A: (10) fold

Q: And the IC50 ([8]; read-out: pIC50 KHS/MAP4K5 (converted))?
A: 316 nM
